Laboratory results as given in patent US20140066431A1, “Benzoxazepines as Inhibitors of PI3K/mTOR and Methods of Their Use and Manufacture” (Exelixis, Inc., priority 2010, published 2014).
Read-outs that look alike come from different tables or passages of the source.

Experiments:
[1] = system: MDA-MB-453 (PI3Kα H1047R); experiment: pAKT (T308) ELISA assay, MDA-MB-453; format: cell-based; conditions: Homo sapiens, PI3KαH1047R, hereg, read-out: Cellular pAKT (T308) IC50 MDA-MB-453
Procedure: (§1) In another embodiment, the pAKT ELISA Assay was performed by seeding cells onto 96-well plates (Corning, 3904) in their respective growth media at the densities listed in Table 3. Cells were incubated at 37° C., 5% CO2 for 48 h (except MDA-MB-453 cells which were cultured in the absence of CO2). Compounds were serially diluted in DMSO and subsequently diluted in serum-free DMEM. Test compounds were added to cells in serum-free DMEM at a final concentration of 0.3% DMSO and incubated for 3 h. Cells were lysed with 130 μL of ice-cold RIPA lysis buffer (50 mM Tris-HCl, pH 7.5; 0.5% sodium deoxycholic acid; 1% Triton X-100; 0.1% SDS; 150 mM NaCl) with protease and phosphatase inhibitors (1 mM EDTA, 1 mM NaF, 20 mM β-glycerophosphate, 1 mM Na-orthovanadate, Complete-Mini EDTA-free, Roche, 11836170001, and Phosphatase Inhibitor Cocktail I, Sigma, P2850), directly in 96-well plates. Cells were lysed on ice for 60-120 min at 4° C. The supernatants were added directly to capture ELISA plates previously pre-coated with rabbit anti-AKT capture antibody. […] The wells were measured for luminescence using a Wallac plate reader at wavelength of 560 nm. After normalization of pAKT signal to total AKT1 signal, IC50 values were determined relative to the DMSO-treated control.

PI3Kδ = PI3Kδ (Homo sapiens, UniProt O00329); experiment: PI3K biochemical assay, PI3Kδ; conditions: PIP2 as substrate
Procedure: PI3Kα activity is measured as the percent of ATP consumed following the kinase reaction using luciferase-luciferin-coupled chemiluminescence. Reactions were conducted in 384-well white, medium binding microtiter plates (Greiner). Kinase reactions were initiated by combining test compounds, ATP, substrate (PIP2), and kinase in a 20 μL volume in a buffer solution. The standard PI3Kalpha assay buffer is composed 50 mM Tris, pH 7.5, 1 mM EGTA, 10 mM MgCl2, 1 mM DTT and 0.03% CHAPS. The standard assay concentrations for enzyme, ATP, and substrate are 1.5 nM, 1 μM, and 10 μM, respectively. The reaction mixture was incubated at ambient temperature for approximately 2 h. Following the kinase reaction, a 10 μL aliquot of luciferase-luciferin mix (Promega Kinase-Glo) was added and the chemiluminescence signal measured using a Victor2 plate reader (Perkin Elmer). Total ATP consumption was limited to 40-60% and IC50 values of control compounds correlate well with literature references. Substituting PI3Kα with PI3Kβ, PI3Kγ, or PI3Kδ, the inhibitory activity of the compounds for the other isoforms of I3K were measured.

PI3Kα-mutated models = experiment: Growth factor induced AKT phosphorylation compared across PI3Kα-mutated models; format: cell-based; conditions: cell lines of Table 6
Procedure: (§2) Cells were incubated at 37° C., 5% CO2 for 48 h (except MDA-MB-453 cells which were cultured in the absence of CO2). Compounds were serially diluted in DMSO and subsequently diluted in serum-free DMEM. Test compounds were added to cells in serum-free DMEM at a final concentration of 0.3% DMSO and incubated for 3 h. Cells were lysed with 130 μL of ice-cold RIPA lysis buffer (50 mM Tris-HCl, pH 7.5; 0.5% sodium deoxycholic acid; 1% Triton X-100; 0.1% SDS; 150 mM NaCl) with protease and phosphatase inhibitors (1 mM EDTA, 1 mM NaF, 20 mM β-glycerophosphate, 1 mM Na-orthovanadate, Complete-Mini EDTA-free, Roche, 11836170001, and Phosphatase Inhibitor Cocktail I, Sigma, P2850), directly in 96-well plates. Cells were lysed on ice for 60-120 min at 4° C. The supernatants were added directly to capture ELISA plates previously pre-coated with rabbit anti-AKT capture antibody. ELISA assays for pAKT(T308) and total AKT were performed with the pAKT(T308) ELISA kit (Cell Signaling Technology, 7144) and AKT1 ELISA kit (Cell Signaling Technology, 7142). For the pAKT(T308) ELISA, 85 μL of cell lysate was added to each well. For the total AKT1 ELISA, 15 μL of cell lysate and 85 μL of Starting Block buffer (Pierce, 37543) were added to each well.
Cells were incubated at 37° C., 5% CO2 for 48 h (except MDA-MB-453 cells which were cultured in the absence of CO2). […]

HCT 116 (PI3Kα H1047R) = experiment: pAKT (T308) ELISA assay, HCT 116; format: cell-based; conditions: Homo sapiens, PI3KαH1047R, IGF1, read-out: Cellular pAKT (T308) IC50 HCT 116
Procedure: as §1

[2] = system: PC3 (PTEN null) cellular model; experiment: pAKT (T308) ELISA assay, PC3; format: cell-based; conditions: Homo sapiens; IGF1 stimulation
Procedure: as §2

[3] = system: T-47D cells (PI3Kα-H1047R mutant); experiment: pAKT (T308) ELISA assay, T-47D; format: cell-based; conditions: Homo sapiens, T47D
Procedure: as §1

[4] = system: SK-BR-3 (PI3Kα wild-type); experiment: pAKT (T308) ELISA assay, SK-BR-3; format: cell-based; conditions: Homo sapiens, PI3Kαwt, hereg, read-out: Cellular pAKT (T308) IC50 SK-BR-3
Procedure: as §1

Sequence of PI3Kδ (O00329 whole entry): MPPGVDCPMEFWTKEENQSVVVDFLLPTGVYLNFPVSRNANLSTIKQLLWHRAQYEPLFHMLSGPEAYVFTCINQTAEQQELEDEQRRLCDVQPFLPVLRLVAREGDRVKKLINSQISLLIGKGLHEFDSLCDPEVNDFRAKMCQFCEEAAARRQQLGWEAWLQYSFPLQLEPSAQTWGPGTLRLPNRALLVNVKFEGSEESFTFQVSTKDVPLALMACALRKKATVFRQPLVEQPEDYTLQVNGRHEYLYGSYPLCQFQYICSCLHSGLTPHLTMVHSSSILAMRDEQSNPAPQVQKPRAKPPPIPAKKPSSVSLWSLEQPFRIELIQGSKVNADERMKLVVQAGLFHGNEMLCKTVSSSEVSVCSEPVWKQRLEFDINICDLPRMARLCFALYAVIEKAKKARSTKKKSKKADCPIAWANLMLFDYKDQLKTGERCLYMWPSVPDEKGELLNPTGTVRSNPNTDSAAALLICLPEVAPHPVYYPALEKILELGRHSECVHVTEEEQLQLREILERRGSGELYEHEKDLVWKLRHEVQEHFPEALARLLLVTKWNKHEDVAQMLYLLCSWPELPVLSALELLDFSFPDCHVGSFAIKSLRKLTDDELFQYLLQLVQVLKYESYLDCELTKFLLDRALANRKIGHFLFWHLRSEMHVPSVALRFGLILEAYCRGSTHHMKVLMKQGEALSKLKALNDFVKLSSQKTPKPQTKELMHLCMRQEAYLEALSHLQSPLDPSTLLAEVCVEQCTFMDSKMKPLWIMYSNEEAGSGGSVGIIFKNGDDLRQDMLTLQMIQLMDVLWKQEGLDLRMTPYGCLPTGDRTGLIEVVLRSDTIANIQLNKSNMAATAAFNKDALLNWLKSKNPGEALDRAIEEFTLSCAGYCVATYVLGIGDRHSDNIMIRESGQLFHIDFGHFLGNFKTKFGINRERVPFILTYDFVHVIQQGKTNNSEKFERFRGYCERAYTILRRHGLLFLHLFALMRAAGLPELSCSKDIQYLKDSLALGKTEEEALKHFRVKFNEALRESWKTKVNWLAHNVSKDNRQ
Sequence of PI3Kδ (P27986 whole entry partner): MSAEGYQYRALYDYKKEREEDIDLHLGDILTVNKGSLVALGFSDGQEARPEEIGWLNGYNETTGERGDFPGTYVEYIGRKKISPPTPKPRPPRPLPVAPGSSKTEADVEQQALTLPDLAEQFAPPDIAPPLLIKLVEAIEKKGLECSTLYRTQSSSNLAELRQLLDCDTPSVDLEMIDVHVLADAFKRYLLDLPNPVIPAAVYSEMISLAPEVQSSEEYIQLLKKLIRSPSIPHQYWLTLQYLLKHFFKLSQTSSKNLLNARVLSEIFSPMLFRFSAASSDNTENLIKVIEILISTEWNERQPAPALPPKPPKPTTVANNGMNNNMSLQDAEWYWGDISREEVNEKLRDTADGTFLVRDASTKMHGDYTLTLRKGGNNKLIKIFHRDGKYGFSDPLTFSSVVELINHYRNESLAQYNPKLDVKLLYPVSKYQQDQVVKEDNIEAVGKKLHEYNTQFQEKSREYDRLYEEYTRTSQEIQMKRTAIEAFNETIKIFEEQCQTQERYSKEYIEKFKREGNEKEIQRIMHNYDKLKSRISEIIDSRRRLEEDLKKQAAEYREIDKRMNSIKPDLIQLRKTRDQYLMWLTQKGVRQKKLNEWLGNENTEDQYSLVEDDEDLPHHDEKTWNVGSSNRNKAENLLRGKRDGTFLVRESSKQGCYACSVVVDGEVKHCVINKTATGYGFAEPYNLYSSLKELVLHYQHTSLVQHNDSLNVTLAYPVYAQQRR

IC50 [1]: > 30 µM
IC50 (PI3Kδ): 0.142 µM
IC50 (HCT 116 (PI3Kα H1047R)): 26.4 µM
IC50 [2]: 11.2 µM
IC50 ([3]; IGF1 stimulation, Table 5, read-out: pAKT (T308) IC50 T-47D PI3Kα H1047R IGF1): 27.9 µM
IC50 ([3]; PI3KαH1047R, IGF1, Table 6, read-out: Cellular pAKT (T308) IC50 T-47D): 27.9 µM
IC50 [4]: > 30 µM
SMILES: Cc1cc(C(C)Nc2ccccc2)c2nc(N3CCOCC3)cc(=O)n2c1 (centres unmarked) [TGX-221, 7-methyl-2-(4-morpholinyl)-9-[1-(phenylamino)ethyl]-4H-pyrido[1,2-a]pyrimidin-4-one]
effect on PI3Kα mediated activity in these cell models (PI3Kα-mutated models): no effect
